Drawing on patent publication US20140179664A1, “Heterocyclyl Pyrimidine Analogues As JAK Inhibitors” (Cellzome Limited, priority 2011, published 2014), this text covers IC50 for ten molecules.

The term IC50 denotes the concentration that gives 50% inhibition.

Some results are limits rather than exact numbers.

The experiment addresses T1, JAK3 (Homo sapiens, UniProt P52333).
T1 construct: endogenous in cells; host or cells: Molt4 (ATCC CRL-1582) and Ramos (ATCC CRL-1596), mixed lysate 1:2
T1 sequence (P52333 1-1124): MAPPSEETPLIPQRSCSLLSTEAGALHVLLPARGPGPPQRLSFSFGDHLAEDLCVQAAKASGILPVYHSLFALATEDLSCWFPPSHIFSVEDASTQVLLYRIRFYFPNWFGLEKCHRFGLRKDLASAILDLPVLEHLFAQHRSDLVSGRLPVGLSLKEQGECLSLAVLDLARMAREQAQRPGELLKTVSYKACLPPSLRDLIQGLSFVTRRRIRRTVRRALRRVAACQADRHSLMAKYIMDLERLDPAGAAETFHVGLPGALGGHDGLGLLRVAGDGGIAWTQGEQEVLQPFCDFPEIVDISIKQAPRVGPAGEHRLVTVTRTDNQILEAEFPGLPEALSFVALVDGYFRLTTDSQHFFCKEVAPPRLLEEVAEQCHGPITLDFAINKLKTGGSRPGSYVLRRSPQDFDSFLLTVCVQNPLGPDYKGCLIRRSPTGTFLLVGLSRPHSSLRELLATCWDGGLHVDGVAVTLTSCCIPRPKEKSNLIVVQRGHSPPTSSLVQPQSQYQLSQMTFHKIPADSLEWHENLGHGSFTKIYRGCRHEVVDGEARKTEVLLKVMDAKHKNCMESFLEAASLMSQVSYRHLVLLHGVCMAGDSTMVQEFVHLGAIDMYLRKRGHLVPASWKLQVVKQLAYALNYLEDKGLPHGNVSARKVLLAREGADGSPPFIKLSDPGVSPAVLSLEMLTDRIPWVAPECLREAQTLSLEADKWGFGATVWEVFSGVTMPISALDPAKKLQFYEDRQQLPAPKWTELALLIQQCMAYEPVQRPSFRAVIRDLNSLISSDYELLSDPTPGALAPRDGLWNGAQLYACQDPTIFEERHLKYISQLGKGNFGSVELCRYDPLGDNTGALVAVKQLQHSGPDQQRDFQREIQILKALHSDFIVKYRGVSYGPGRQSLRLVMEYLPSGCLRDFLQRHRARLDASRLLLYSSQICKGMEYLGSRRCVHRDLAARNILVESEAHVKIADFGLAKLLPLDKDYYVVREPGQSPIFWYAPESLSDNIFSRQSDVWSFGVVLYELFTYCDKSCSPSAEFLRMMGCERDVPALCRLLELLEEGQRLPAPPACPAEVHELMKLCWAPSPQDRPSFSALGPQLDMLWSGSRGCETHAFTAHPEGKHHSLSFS
As to the kind of experiment: Kinobeads assay, JAK3. The format is binding. As to conditions: mixed Molt4/Ramos lysate, read-out: Inhibition values (IC50) JAK3. In a few lines:
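Mixed Molt4/Ramos lysate (1:2, 10 mg/mL protein) was incubated 3 h in the cold with the immobilized aminopyrido-pyrimidine affinity matrix and compound, 9-step 1:3 dilutions. Bead-bound kinases were eluted and quantified by antibody dot blot with infrared detection. IC50s are from dose-response curves.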
As to `Cn1cc(Nc2ncc(Cl)c(N[C@H](CO)c3cccc(F)c3)n2)cn1` [Compound 85], the IC50 is < 100 nM.
Next, `CN(C)CCNC(=O)Cn1cc(Nc2ncc(Cl)c(N[C@H](CO)c3ccccc3)n2)cn1` [Compound 89]: < 100 nM; `CN(C)CCCNC(=O)Cn1cc(Nc2ncc(Cl)c(N[C@H](CO)c3ccccc3)n2)cn1` [Compound 90]: < 100 nM; `OCCn1cc(Nc2ncc(Cl)c(NC(CO)c3cccc(Br)c3)n2)cn1` (stereo not shown) [Compound 93]: 100 to 1000 nM.
Next, `OC[C@@H](Nc1nc(Nc2cn[nH]c2)ncc1Cl)c1cccc(F)c1` [Compound 88]: < 100 nM.
For the molecule `Cn1cc(Nc2ncc(Cl)c(N[C@H](CO)c3cccnc3)n2)cn1` [Compound 91], the IC50 was < 100 nM.
Consider `OCCn1cc(Nc2ncc(Cl)c(N[C@H](CO)c3cccc(F)c3)n2)cn1` [Compound 86], for which the half-maximal inhibitory concentration (IC50) is < 100 nM.
Next, `OCCn1cc(Nc2ncc(Cl)c(N[C@H](CO)c3cccnc3)n2)cn1` [Compound 92]: < 100 nM.
Next, `Cn1cc(Nc2ncc(F)c(N[C@H](CO)c3ccccc3)n2)cn1` [Compound 3]: 100 to 1000 nM; `NC(=O)Cn1cc(Nc2ncc(Cl)c(N[C@H](CO)c3cccc(F)c3)n2)cn1` [Compound 87]: < 100 nM.
